# From patent US12606552B2, “Bifunctional compound, preparation method therefor, and use thereof” (SUZHOU KINTOR PHARMACEUTICALS, INC., priority 2020, dated 2026)
# Target: T1, AR (Homo sapiens, UniProt P10275, T878A)
# T1 sequence (P10275 1-920 T878A): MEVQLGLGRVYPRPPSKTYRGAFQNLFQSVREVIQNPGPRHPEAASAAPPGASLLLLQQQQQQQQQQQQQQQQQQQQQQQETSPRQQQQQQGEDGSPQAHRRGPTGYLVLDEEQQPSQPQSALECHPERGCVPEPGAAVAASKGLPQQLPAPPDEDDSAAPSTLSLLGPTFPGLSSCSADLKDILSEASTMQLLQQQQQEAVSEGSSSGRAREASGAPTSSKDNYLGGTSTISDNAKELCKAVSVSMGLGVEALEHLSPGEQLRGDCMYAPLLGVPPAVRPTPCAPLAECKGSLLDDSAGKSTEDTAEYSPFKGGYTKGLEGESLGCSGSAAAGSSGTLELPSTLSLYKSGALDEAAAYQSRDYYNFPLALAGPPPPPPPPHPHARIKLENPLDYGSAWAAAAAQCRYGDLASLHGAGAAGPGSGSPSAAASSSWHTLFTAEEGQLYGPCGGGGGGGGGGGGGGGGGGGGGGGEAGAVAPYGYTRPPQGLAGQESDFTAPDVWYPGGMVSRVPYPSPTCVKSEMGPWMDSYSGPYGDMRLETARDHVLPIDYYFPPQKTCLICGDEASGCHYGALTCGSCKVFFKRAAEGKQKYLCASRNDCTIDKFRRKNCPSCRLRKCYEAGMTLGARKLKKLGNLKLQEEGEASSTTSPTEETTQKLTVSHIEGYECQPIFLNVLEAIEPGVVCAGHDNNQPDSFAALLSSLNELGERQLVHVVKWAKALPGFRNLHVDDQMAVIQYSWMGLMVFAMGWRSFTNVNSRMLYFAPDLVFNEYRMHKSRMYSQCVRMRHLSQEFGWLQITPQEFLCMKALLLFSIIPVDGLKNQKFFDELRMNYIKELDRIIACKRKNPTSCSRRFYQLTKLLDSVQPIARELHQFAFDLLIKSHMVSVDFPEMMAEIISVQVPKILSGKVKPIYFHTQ
# Experiment: Degradation effect on AR protein activity in prostate cancer cell line Lncap by ELISA method
# Format: cell-based
# Parameters: Degradation Effect of Compounds on AR Protein Activity in Prostate Cancer Cell Line Lncap by ELISA Method; endogenous in cells; host or cells: LNCaP
# Conditions: 24 hours, Total Androgen Receptor Sandwich ELISA, read-out: IC50 (the drug concentration at 50% inhibition) of AR protein
# Description: Activity Assay Example 6: Determination of the Degradation Effect of Compounds on AR Protein Activity in Prostate Cancer Cell Line Lncap by ELISA Method
# • LNCaP: 1.5*10^LNCaP (human prostate cancer) was purchased from the Chinese Academy of Sciences Cell Bank and cultured in RPMI-1640 medium containing 10% fetal bovine serum. Lncap cells were cultured at 37° C. and 5% CO2 in a humidified incubator. When the coverage reached about 80%, the cells were passaged at a ratio of 1:3. • ELISA kit: Total Androgen Receptor Sandwich ELISA Kit (Brand CST, Cat #12850). 2. Test Method 2.1 Cell Plating
# After the cells were centrifuged, they were diluted to 1.5×10^4 cells/100 ul with fresh medium and plated into a 96-well plate with 100 ul per well.
# Test compound preparation: The compounds were weighed and diluted with DMSO to stock solution with a concentration of 10 mM for later use. According to the experimental requirements, the drug was diluted from 2 uM, 3 fold dilution for 10 point series, and finally 2 μl of the drug was added to each well, and 2 μl of DMSO was added to the control group.
# 2.3 After 24 hours, the medium was removed, and the cells were washed once with ice-cold 1×PBS. Then the PBS was removed, and 0.5 ml ice-cold 1× Cell Lysis Buffer containing 1 mM PMSF was added to each well plate and incubated on ice for 20 minutes. […]
smiles,measurement,value
Cc1ncsc1-c1ccc(CNC(=O)[C@@H]2C[C@@H](O)CN2C(=O)[C@@H](NC(=O)COCCCCOc2ccc(-c3ccc(N4C(=S)N(c5ccc(C#N)c(C(F)(F)F)c5F)C(=O)C4(C)C)cn3)cc2)C(C)(C)C)cc1 [Compound A46],DC50,0.049 µM
